Reference: ChEMBL document CHEMBL1201862, “PubChem BioAssay data set” (2004)
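Cultured in 96-well plates, cells were exposed to test compound for 48 hours across five concentrations. Abbreviation: GI50, concentration required for 50% inhibition of growth.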 Calls of active or inactive are those of the source. Rule as the data show it: active = GI50 up to about 1.1 µM and inactive = higher.

Legend:
Assay in all cases: NCI tumour cell line growth inhibition, 48 h
MDA-N = tested on: MDA-N
T47D = tested on: T47D
OVCAR-4 = tested on: OVCAR-4
SK-OV-3 = tested on: SK-OV-3
UO-31 = tested on: UO-31
DU-145 = tested on: DU-145
SW-620 = tested on: SW-620
UACC-257 = tested on: UACC-257
TK-10 = tested on: TK-10
RPMI-8226 = tested on: RPMI-8226
UACC-62 = tested on: UACC-62
NCI-H23 = tested on: NCI-H23
CAKI-1 = tested on: CAKI-1
Malme-3M = tested on: Malme-3M
SK-MEL-2 = tested on: SK-MEL-2
HL-60 = tested on: HL-60
EKVX = tested on: EKVX
SNB-75 = tested on: SNB-75
NCI-H226 = tested on: NCI-H226
HCC 2998 = tested on: HCC 2998
NCI-H460 = tested on: NCI-H460
SK-MEL-5 = tested on: SK-MEL-5
OVCAR-3 = tested on: OVCAR-3
A549 = tested on: A549
MDA-MB-435 = tested on: MDA-MB-435
HCT-116 = tested on: HCT-116
SF-295 = tested on: SF-295
HOP-92 = tested on: HOP-92
COLO 205 = tested on: COLO 205
SR = tested on: SR
CCRF-CEM = tested on: CCRF-CEM
HOP-62 = tested on: HOP-62
RXF 393 = tested on: RXF 393
LOX IMVI = tested on: LOX IMVI
MOLT-4 = tested on: MOLT-4
M14 = tested on: M14
MCF7 = tested on: MCF7
HT-29 = tested on: HT-29
SK-MEL-28 = tested on: SK-MEL-28
OVCAR-8 = tested on: OVCAR-8
HCT-15 = tested on: HCT-15
SF-268 = tested on: SF-268
A498 = tested on: A498
ACHN = tested on: ACHN
SNB-19 = tested on: SNB-19
KM12 = tested on: KM12
SF-539 = tested on: SF-539
786-0 = tested on: 786-0
IGROV-1 = tested on: IGROV-1
NCI/ADR-RES = tested on: NCI/ADR-RES
K562 = tested on: K562
PC-3 = tested on: PC-3
NCI-H522 = tested on: NCI-H522
SN12C = tested on: SN12C
Hs-578T = tested on: Hs-578T
MDA-MB-231 = tested on: MDA-MB-231
U-251 = tested on: U-251

`Cc1cc2c3c(c1)CCCN3CCC2` was tested, and the GI50 (MDA-N) was > 10 µM (inactive), the GI50 (T47D) was > 10 µM (inactive) and the GI50 (OVCAR-4) was > 10 µM (inactive). For the same molecule, the GI50 (SK-OV-3) was > 10 µM (inactive), the GI50 (UO-31) was > 10 µM (inactive) and the GI50 (DU-145) was > 10 µM (inactive). For the same molecule, the GI50 (SW-620) was > 10 µM (inactive), the GI50 (UACC-257) was > 10 µM (inactive) and the GI50 (TK-10) was > 10 µM (inactive). The GI50 (RPMI-8226) was > 10 µM (inactive), the GI50 (UACC-62) was > 10 µM (inactive) and the GI50 (NCI-H23) was > 10 µM (inactive). For the same molecule, the GI50 (CAKI-1) was > 10 µM (inactive), the GI50 (Malme-3M) was > 10 µM (inactive) and the GI50 (SK-MEL-2) was > 10 µM (inactive). The GI50 (HL-60) was > 10 µM (inactive), the GI50 (EKVX) was > 10 µM (inactive) and the GI50 (SNB-75) was > 10 µM (inactive). For the same molecule, the GI50 (NCI-H226) was > 10 µM (inactive), the GI50 (HCC 2998) was > 10 µM (inactive) and the GI50 (NCI-H460) was > 10 µM (inactive). The GI50 (SK-MEL-5) was > 10 µM (inactive), the GI50 (OVCAR-3) was > 10 µM (inactive) and the GI50 (A549) was > 10 µM (inactive). The GI50 (MDA-MB-435) was > 10 µM (inactive), the GI50 (HCT-116) was > 10 µM (inactive) and the GI50 (SF-295) was > 10 µM (inactive). For the same molecule, the GI50 (HOP-92) was > 10 µM (inactive), the GI50 (COLO 205) was > 10 µM (inactive) and the GI50 (SR) was > 10 µM (inactive). The GI50 (CCRF-CEM) was > 10 µM (inactive), the GI50 (HOP-62) was > 10 µM (inactive) and the GI50 (RXF 393) was > 10 µM (inactive). The GI50 (LOX IMVI) was > 10 µM (inactive), the GI50 (MOLT-4) was > 10 µM (inactive) and the GI50 (M14) was > 10 µM (inactive). For the same molecule, the GI50 (MCF7) was > 10 µM (inactive), the GI50 (HT-29) was > 10 µM (inactive) and the GI50 (SK-MEL-28) was > 10 µM (inactive). The GI50 (OVCAR-8) was > 10 µM (inactive), the GI50 (HCT-15) was > 10 µM and the GI50 (SF-268) was > 10 µM (inactive). The GI50 (A498) was > 10 µM (inactive), the GI50 (ACHN) was > 10 µM (inactive) and the GI50 (SNB-19) was > 10 µM (inactive). For the same molecule, the GI50 (KM12) was > 10 µM (inactive), the GI50 (SF-539) was > 10 µM (inactive) and the GI50 (786-0) was > 10 µM (inactive). For the same molecule, the GI50 (IGROV-1) was > 10 µM (inactive), the GI50 (NCI/ADR-RES) was > 10 µM (inactive) and the GI50 (K562) was > 10 µM (inactive). For the same molecule, the GI50 (PC-3) was > 10 µM (inactive), the GI50 (NCI-H522) was > 10 µM (inactive) and the GI50 (SN12C) was > 10 µM (inactive). For the same molecule, the GI50 (Hs-578T) was > 10 µM (inactive), the GI50 (MDA-MB-231) was > 10 µM (inactive) and the GI50 (U-251) was > 10 µM (inactive).
